Data set [1] has as its system Cell line. Nature of the data set: Inhibitory concentration against Human umbilical vein endothelial cells stimulated by VEGF was determined. It counts as functional, cell-based.
The species entered for the next data set is Homo sapiens. As to conditions: Liver, Microsome; call rule not given here.
Data set [2] deals with Vascular endothelial growth factor receptor 2 (Homo sapiens, UniProt P35968). The data set is described as follows: Inhibitory concentration against Vascular endothelial growth factor receptor 2.
Vascular endothelial growth factor receptor 2, sequence (P35968 whole entry): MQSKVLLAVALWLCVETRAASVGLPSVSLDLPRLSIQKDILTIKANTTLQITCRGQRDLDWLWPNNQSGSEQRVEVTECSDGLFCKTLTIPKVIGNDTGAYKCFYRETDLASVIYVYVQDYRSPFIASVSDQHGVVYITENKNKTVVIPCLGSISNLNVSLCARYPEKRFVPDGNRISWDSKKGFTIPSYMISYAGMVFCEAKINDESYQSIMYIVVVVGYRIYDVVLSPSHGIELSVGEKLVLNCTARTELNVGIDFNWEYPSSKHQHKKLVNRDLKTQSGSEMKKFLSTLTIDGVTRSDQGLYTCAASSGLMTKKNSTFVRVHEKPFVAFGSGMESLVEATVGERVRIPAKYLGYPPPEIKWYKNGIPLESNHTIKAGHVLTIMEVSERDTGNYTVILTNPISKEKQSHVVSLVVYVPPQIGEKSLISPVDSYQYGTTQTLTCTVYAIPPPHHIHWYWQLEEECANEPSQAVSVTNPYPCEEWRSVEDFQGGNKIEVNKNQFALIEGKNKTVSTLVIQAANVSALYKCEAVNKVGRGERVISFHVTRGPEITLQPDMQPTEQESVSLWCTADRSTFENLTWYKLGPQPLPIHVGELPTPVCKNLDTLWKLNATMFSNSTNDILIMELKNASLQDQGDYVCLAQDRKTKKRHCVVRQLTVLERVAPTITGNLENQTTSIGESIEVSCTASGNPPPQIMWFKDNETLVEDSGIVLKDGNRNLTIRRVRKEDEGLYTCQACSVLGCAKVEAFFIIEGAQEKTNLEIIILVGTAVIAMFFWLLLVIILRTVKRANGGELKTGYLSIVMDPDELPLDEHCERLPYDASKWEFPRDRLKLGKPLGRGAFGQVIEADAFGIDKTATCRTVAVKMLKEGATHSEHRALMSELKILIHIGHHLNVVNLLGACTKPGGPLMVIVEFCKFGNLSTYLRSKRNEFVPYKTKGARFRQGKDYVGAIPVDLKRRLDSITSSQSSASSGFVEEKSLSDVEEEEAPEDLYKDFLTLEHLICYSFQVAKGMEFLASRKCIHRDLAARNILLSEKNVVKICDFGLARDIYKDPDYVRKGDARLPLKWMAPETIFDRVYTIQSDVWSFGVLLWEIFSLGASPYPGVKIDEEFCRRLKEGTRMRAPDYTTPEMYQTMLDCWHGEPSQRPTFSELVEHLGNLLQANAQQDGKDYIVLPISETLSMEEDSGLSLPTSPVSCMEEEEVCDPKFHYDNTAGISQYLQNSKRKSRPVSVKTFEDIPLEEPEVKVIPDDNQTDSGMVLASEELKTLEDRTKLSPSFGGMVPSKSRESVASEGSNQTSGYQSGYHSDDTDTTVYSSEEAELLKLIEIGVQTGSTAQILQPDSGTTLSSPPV
The test system of data set [3] is Cell line. Nature of the data set: Inhibitory concentration against Human umbilical vein endothelial cells stimulated by VEGF was determined;NA= not active. It counts as functional, cell-based.
The nature of data set [4]: Area under the concentration time curve (0-4 hr) value in mouse after 50 mg/kg oral dosage. Particulars: in vivo. On the set-up: time < 4 hr, dose 50 mg/kg, route oral. It counts as ADME, organism-based.
Data set [5] is described as follows: Maximum plasma concentration in mouse after 50 mg/kg oral dosage. Details: dose 50 mg/kg, route oral. It counts as ADME, organism-based.
A short description of data set [6]: Glucuronidation in human liver microsomes was determined. It counts as ADME, Microsome.

SMILES strings stand for the structures.

In the case of `Cc1ccc(Nc2ncnn3cc(C(=O)NCCCN4CCOCC4)c(C)c23)cc1O`, the values for the IC50 (in the data set with Cell line [1]; in data set [2]) were 0.003 µM and 0.052 µM, respectively. The compound further registered a Glucuronidation in the data set listed under Homo sapiens of 0.01 nmol/min/mg.

Consider `COC(=O)c1cn2ncnc(Nc3ccc(C)c(O)c3)c2c1C(C)(C)C`, for which the IC50 in data set [2] was 0.31 µM; in the data set with Cell line [3], “Not Active”.

`CCc1ccc(Nc2ncnn3cc(C(=O)OC)c(C)c23)cc1O`: the half-maximal inhibitory concentration (IC50) in data set [2] was 0.055 µM.

For the compound `CCCc1c(C(=O)OCC)cn2ncnc(Nc3ccc(C)c(O)c3)c12`, the IC50 was found to be 0.006 µM in the data set with Cell line [1] and 0.003 µM in data set [2].

`CCOC(=O)c1cn2ncnc(Nc3ccc(C)c(O)c3)c2c1C(C)C`: the results for the IC50 (in the data set on Cell line [1]; in data set [2]) were 0.004 µM and 0.014 µM, respectively.

`COC(=O)c1cn2ncnc(Nc3ccc(Br)c(O)c3)c2c1C` came in with a concentration for half-maximal inhibition (IC50) in data set [2] of 0.033 µM. This lies in the double-digit nanomolar range.

On to `COC(=O)c1cn2ncnc(Nc3ccc(C)c(O)c3)c2c1C`, for which inhibition in data set [2] was half-maximal at 0.01 µM (IC50).

Consider `Cc1ccc(Nc2ncnn3cc(OCCCN4CCCCC4)c(C(C)C)c23)cc1O`, for which the half-inhibitory concentration (IC50) was determined as 0.001 µM in the data set on Cell line [1] and 0.004 µM in data set [2]. Further, the Glucuronidation in the data set filed under Homo sapiens was determined as 0.03 nmol/min/mg.

Turning to `Cc1ccc(Nc2ncnn3cc(C(=O)NCCCN4CCCC4)c(C(C)C)c23)cc1O`, the IC50 in the data set with Cell line [1] stood at 0.008 µM; in data set [2], 0.018 µM. The AUC(0-t) at 4 h in data set [4] was found to be 0.267 µM·h. The Glucuronidation in the data set listed under Homo sapiens is 0.02 nmol/min/mg. The compound further displayed a Cmax in data set [5] of 166 nM.

For `COCCCNC(=O)c1cn2ncnc(Nc3ccc(C)c(O)c3)c2c1C`, in the data set listed under Homo sapiens, the Glucuronidation is 0.16 nmol/min/mg. Besides, in data set [2], half-maximal inhibition (IC50) required 0.15 µM.

Take `COC(=O)c1cn2ncnc(Nc3cccc(O)c3)c2c1C`: the IC50 in data set [2] amounted to 0.061 µM.

Turning to `Cc1ccc(Nc2ncnn3cc(C(=O)NCCCn4nccn4)c(C)c23)cc1O`, the IC50 in the data set on Cell line [1] is 0.02 µM; in data set [2], 0.03 µM. The Glucuronidation in the data set listed under Homo sapiens is 0.21 nmol/min/mg.

As for `Cc1ccc(Nc2ncnn3cc(NC(=O)NCCCN4CCCCC4)c(C(C)C)c23)cc1O`, the IC50 (with Cell line [1]; in data set [2]) was 0.005 µM each time. Also, in the data set filed under Homo sapiens, the Glucuronidation is 0.04 nmol/min/mg.

As to `CCCc1c(C(=O)NCCCN2CCCC2)cn2ncnc(Nc3ccc(C)c(O)c3)c12`, the results for the 50% inhibitory concentration (IC50) (in the data set with Cell line [1]; in data set [2]) were 0.035 µM and 0.09 µM, respectively.

`COC(=O)c1cn2ncnc(Nc3ccc(C(F)(F)F)c(O)c3)c2c1C` showed an IC50 in data set [2] of 0.37 µM.

Regarding `Cc1ccc(Nc2ncnn3cc(C(=O)NCCCN4CCCC4)c(C)c23)cc1O`, the IC50 turned out to be 0.01 µM in the data set with Cell line [1] and 0.04 µM in data set [2]. This compound returned a Glucuronidation in data set [6] of 0.01 nmol/min/mg.

The compound `CCCc1ccc(Nc2ncnn3cc(C(=O)OC)c(C)c23)cc1O` came in with a concentration for half-maximal inhibition (IC50) in data set [2] of 0.19 µM.

Take `COC(=O)c1cn2ncnc(Nc3ccc(C(C)C)c(O)c3)c2c1C`: in data set [2], the IC50 is 0.38 µM.

In the case of `Cc1ccc(Nc2ncnn3cc(NC(=O)OCCCN4CCCCC4)c(C(C)C)c23)cc1O`, the values for the IC50 (in the data set with Cell line [1]; in data set [2]) were 0.001 µM and 0.005 µM, respectively. The Glucuronidation in the data set filed under Homo sapiens is 0.08 nmol/min/mg.

The compound `Cc1ccc(Nc2ncnn3cc(NC(=O)OCCCn4nccn4)c(C(C)C)c23)cc1O` registered a Glucuronidation in the data set listed under Homo sapiens of 0.9 nmol/min/mg. The IC50 in data set [2] was 0.007 µM.

Turning to `CCOC(=O)c1cn2ncnc(Nc3ccc(C)c(O)c3)c2c1OCC`, the results for the IC50 (in the data set on Cell line [1]; in data set [2]) were 0.04 µM and 0.064 µM, respectively.

The values are drawn from ChEMBL document CHEMBL1142012, “Synthesis and SAR of 4-(3-hydroxyphenylamino)pyrrolo[2,1-f][1,2,4]triazine based VEGFR-2 kinase inhibitors” (Bioorg Med Chem Lett, 2005).
